Reference: US11098035B2, “Compounds, compositions, and methods for increasing CFTR activity” (Proteostasis Therapeutics, Inc., priority 2014, dated 2021)
Where a name gives a salt, the structure may show the parent alone.

How the values were obtained:
ΔF508-CFTR [1] = molecular target: T1, ΔF508-CFTR (Homo sapiens, UniProt P13569, DEL508-508); assay: Ussing Measurements; type: cell-based; details: compound at 10 uM and VX-809 at 3 uM, activity as % of VX-809 (3 uM); CFTRinh-172 inhibitable short-circuit current; hBEs homozygous for ΔF508, 24 h treatment
T1 construct: Primary lung epithelial cells homozygous for the Cystic Fibrosis-causing ΔF508 mutation were differentiated for a minimum of 4 weeks; endogenous in cells; host or cells: primary human bronchial (lung) epithelial cells (hBE) homozygous for ΔF508, differentiated at an air-liquid interface
T1 sequence (P13569 with tags, fused parts or gaps DEL508-508): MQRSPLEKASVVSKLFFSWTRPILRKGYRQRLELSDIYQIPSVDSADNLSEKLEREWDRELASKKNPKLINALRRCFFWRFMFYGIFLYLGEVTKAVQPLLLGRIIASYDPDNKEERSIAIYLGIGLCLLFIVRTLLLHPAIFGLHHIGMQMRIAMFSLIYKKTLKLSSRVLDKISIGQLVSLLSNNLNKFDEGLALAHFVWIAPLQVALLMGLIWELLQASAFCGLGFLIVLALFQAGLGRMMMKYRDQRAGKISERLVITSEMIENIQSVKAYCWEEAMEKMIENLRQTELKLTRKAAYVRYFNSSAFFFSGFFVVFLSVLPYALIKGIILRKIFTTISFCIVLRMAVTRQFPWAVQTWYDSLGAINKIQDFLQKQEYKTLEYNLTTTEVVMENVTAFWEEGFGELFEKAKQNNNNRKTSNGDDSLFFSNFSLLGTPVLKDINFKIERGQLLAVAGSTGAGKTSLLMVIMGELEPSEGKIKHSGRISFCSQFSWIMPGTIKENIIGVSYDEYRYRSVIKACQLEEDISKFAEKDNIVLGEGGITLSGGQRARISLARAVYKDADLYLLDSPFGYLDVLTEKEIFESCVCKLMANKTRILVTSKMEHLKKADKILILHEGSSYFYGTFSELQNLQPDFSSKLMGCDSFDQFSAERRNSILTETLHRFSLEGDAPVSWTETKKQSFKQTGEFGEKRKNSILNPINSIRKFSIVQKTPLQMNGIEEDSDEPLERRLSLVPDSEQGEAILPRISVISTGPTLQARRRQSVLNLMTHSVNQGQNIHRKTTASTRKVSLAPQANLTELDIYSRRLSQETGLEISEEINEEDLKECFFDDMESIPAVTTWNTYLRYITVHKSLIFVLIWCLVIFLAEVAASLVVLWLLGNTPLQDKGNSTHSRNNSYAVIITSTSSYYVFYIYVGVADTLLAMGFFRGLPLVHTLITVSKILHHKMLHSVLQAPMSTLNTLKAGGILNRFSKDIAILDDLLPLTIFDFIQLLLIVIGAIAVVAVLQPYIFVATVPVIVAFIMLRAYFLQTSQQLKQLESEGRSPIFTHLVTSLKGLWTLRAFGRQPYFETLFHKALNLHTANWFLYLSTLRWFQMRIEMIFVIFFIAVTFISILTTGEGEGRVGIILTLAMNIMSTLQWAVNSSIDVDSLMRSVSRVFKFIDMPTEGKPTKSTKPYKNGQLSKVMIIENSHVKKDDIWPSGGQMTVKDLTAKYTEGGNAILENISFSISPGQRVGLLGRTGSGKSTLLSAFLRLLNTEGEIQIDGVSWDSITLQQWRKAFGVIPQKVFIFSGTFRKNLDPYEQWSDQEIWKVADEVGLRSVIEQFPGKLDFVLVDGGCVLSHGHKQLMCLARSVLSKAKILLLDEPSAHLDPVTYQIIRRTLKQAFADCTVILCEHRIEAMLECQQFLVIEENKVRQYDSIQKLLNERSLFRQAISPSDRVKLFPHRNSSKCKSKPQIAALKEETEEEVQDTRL
Protocol: As discussed above, Ussing measurements are used to measure CFTR activity. In this method, primary lung epithelial cells (hBEs) homozygous for the Cystic Fibrosis-causing ΔF508 mutation are differentiated for a minimum of 4 weeks in an air-liquid interface on SnapWell filter plates prior to the Ussing measurements. Cells are apically mucus-washed for 30 minutes prior to treatment with compounds. The basolateral media is removed and replaced with media containing the compound of interest diluted to its final concentration from DMSO stocks. Treated cells are incubated at 37° C. and 5% CO2 for 24 hours. […] The short-circuit current is measured in voltage clamp-mode (Vhold=0 mV), and the entire assay is conducted at a temperature of 36° C.-36.5° C. Once the voltages stabilized, the chambers are clamped, and data is recorded by pulse readings every 5 seconds. Following baseline current stabilization, the following additions can be applied and the changes in current and resistance of the cells can be monitored: • 1. […]
The inhibitable current (that current that is blocked by CFTRinh-172) is measured as the specific activity of the ΔF508-CFTR channel, and increases in response to compound in this activity over that observed in vehicle-treated samples are identified as the correction of ΔF508-CFTR function imparted by the compound tested. […]

ΔF508-CFTR [2] = molecular target: T1, ΔF508-CFTR; assay: hBE Equivalent Current (Ieq) Assay; type: cell-based; details: AUC of equivalent chloride current, primary lung epithelial cells homozygous for ΔF508, 24 h treatment
Protocol: Primary lung epithelial cells homozygous for the Cystic Fibrosis-causing ΔF508 mutation were differentiated for a minimum of 4 weeks in an air-liquid interface on Costar 24 well HTS filter plates prior to the equivalent current (Ieq) measurements. Cells were apically mucus-washed for 30 minutes 24 h prior to treatment with compounds. The basolateral media was removed and replaced with media containing the compound of interest diluted to its final concentration from DMSO stocks. Treated cells were incubated at 37° C. and 5% CO2 for 24 hours. At the end of the treatment period, the media was changed to the Ieq experimental solution for 30 minutes before the experiment and plates are maintained in a CO2-free incubator during this period. The plates containing the cells were then placed in pre-warmed heating blocks at 36° C.±0.5 for 15 minutes before measurements are taken. The transepithelial voltage (VT) and conductance (GT) were measured using a custom 24 channel current clamp (TECC-24) with 24 well electrode manifold. The Ieq assay measurements were made following additions with standardized time periods: • 1. The baseline VT and GT values were measured for approximately 20 minutes. • 2. Benzamil was added to block ENaC for 15 minutes. • 3. Forskolin plus VX-770 were added to maximally activate ΔF508-CFTR for 27 minutes. • 4. Bumetanide was added to inhibit the NaK2Cl cotransporter and shut-off secretion of chloride.
The activity data captured was the area under the curve (AUC) for the traces of the equivalent chloride current. The AUC was collected from the time of the forskolin/VX-770 addition until the inhibition by bumetanide addition. Correction in response to compound treatment was scored as the increase in the AUC for compound-treated samples over that of vehicle-treated samples.
The results are shown below in Table 2. ++ indicates activity ≥25% run at 10 uM of VX-809 at 1 uM, + indicates activity 10 to <25% run at 10 uM of VX-809 at 1 uM, **indicates activity ≥200% of VX-809 (1 uM) with compound at 10 uM and VX-809 at 1 uM; * indicates activity 100-200% of VX-809 (1 uM) with compound at 10 uM and VX-809 at 1 uM. ^## indicates activity ≥200% of VX-809 (3 uM) with compound at 10 uM and VX-809 at 3 uM; ^# indicates activity 100-200% of VX-809 (3 uM) with compound at 10 uM and VX-809 at 3 uM.

[3] = compound at 10 uM and VX-809 at 1 uM, activity as % of VX-809 (1 uM)
[4] = compound run at 10 uM, activity relative to VX-809 at 1 uM

SMILES | Ussing (ΔF508-CFTR [1]) | Ieq (ΔF508-CFTR [2]; [3]) | Ieq (ΔF508-CFTR [2]; [4])
C[C@@H](O)c1nnc(C2CC(NC(=O)c3cc(-c4ccccc4)no3)C2)o1 (stereo partly shown) [Example 6] | ## (^## indicates activity ≥200% of VX-809 (3 uM) with compound at 10 uM and VX-809 at 3 uM) | * (* indicates activity 100-200% of VX-809 (1 uM) with compound at 10 uM and VX-809 at 1 uM) | –
O=C(NC1CC(n2nncc2CO)C1)c1cc(-c2ccccc2)no1 (stereo not drawn) [Example 5, N-trans-3-(5-(hydroxymethyl)-1H-1,2,3-triazol-1-yl)cyclobutyl)-3-phenylisoxazole-5-carboxamide] | ## (^## indicates activity ≥200% of VX-809 (3 uM) with compound at 10 uM and VX-809 at 3 uM) | – | –
CN1CC(c2nnc([C@H]3C[C@H](NC(=O)c4cc(-c5ccccc5)no4)C3)o2)C1 [Example 21, N-(trans-3-(5-(1-methylazetidin-3-yl)-1,3,4-oxadiazol-2-yl)cyclobutyl)-3-phenylisoxazole-5-carboxamide trifluoroacetate] | – | * (* indicates activity 100-200% of VX-809 (1 uM) with compound at 10 uM and VX-809 at 1 uM) | –
CN1CCC(N2CC(c3nnc(C4CC(NC(=O)c5cc(-c6ccccc6)no5)C4)o3)C2)CC1 (stereo not drawn) [Example 24, N-cis-(3-(5-(1-(1-methylpiperidin-4-yl)azetidin-3-yl)-1,3,4-oxadiazol-2-yl)cyclobutyl)-3-phenylisoxazole-5-carboxamide] | – | * (* indicates activity 100-200% of VX-809 (1 uM) with compound at 10 uM and VX-809 at 1 uM) | –
O=C(NCCCn1ccnc1)c1cc(-c2ccccc2)no1 [Example 4, N-(3-(1H-imidazol-1-yl)propyl)-3-phenylisoxazole-5-carboxamide] | – | – | + (+ indicates activity 10 to <25% run at 10 uM of VX-809 at 1 uM)
Cn1nccc1CCCNC(=O)c1cc(-c2ccccc2)no1 [Example 7, N-(3-(1-methyl-1H-pyrazol-5-yl)propyl)-3-phenylisoxazole-5-carboxamide] | – | * (* indicates activity 100-200% of VX-809 (1 uM) with compound at 10 uM and VX-809 at 1 uM) | ++ (++ indicates activity ≥25% run at 10 uM of VX-809 at 1 uM)
C[C@@H](O)c1nnc(CC2CC(NC(=O)c3cc(-c4ccccc4)no3)C2)o1 (stereo partly drawn) [Example 37, N-((1S,3s)-3-((5-((R)-1-hydroxyethyl)-1,3,4-oxadiazol-2-yl)methyl)cyclobutyl)-3-phenylisoxazole-5-carboxamide] | – | ** (**indicates activity ≥200% of VX-809 (1 uM) with compound at 10 uM and VX-809 at 1 uM) | –
C[C@@H](O)c1nnc(CC2CC(NC(=O)c3cc(-c4ccc(F)cc4)no3)C2)o1 (stereo partly drawn) [Example 40, 3-(4-Fluorophenyl)-N-[(1r,3r)-3-([5-[(1R)-1-hydroxyethyl]-1,3,4-oxadiazol-2-yl]methyl)cyclobutyl]-1,2-oxazole-5-carboxamide] | – | ** (**indicates activity ≥200% of VX-809 (1 uM) with compound at 10 uM and VX-809 at 1 uM) | –
C[C@@H](O)c1nnc(C[C@H]2C[C@@H](NC(=O)c3cc(-c4ccccc4)no3)C2)s1 [Example 41, 3-Phenyl-N-[(1s,3s)-3-([5-[(1R)-1-hydroxyethyl]-1,3,4-thiadiazol-2-yl]methyl)cyclobutyl]-1,2-oxazole-5-carboxamide] | – | ** (**indicates activity ≥200% of VX-809 (1 uM) with compound at 10 uM and VX-809 at 1 uM) | –
O=C(NCCCn1ccnc1)c1cc(-c2ccccc2)co1 [Example 11, N-(3-(1H-imidazol-1-yl)propyl)-4-phenylfuran-2-carboxamide] | – | – | ++ (++ indicates activity ≥25% run at 10 uM of VX-809 at 1 uM)
O=C(NCCN1CCOCC1)c1cc(-c2ccccc2)co1 [Example 10, N-(2-morpholinoethyl)-4-phenylfuran-2-carboxamide] | – | – | + (+ indicates activity 10 to <25% run at 10 uM of VX-809 at 1 uM)
